Patent publication US6127541A, “Imidazoquinazoline derivatives” (Kyowa Hakko Kogyo Co., Ltd., priority 1996, dated 2000)
Where a name gives a salt, the structure may show the parent alone. Each block holds one molecule with its values, some of them ahead of it.

Columns and labels:
[1] = tested on: rats; experiment: Hypotensive effect in anesthetized rats (mean blood pressure); type: in vivo, male Sprague-Dawley rat; conditions: rat, 10 mg/kg, i.d. N = 2; from value before administration (100%)
Description: Test Example 2. The Hypotensive Effect in Rats
After a male Spraque-Dawley rat (two […]/group) anesthetized with urethane was fixed in the supine position, a cannula was inserted into trachea and the rat was artificially ventilated under the conditions of a tidal volume of […] and 60 breathes/min. The carotid artery and the duodenum were cannulated for measuring blood pressure and administering a drug, respectively. The drug was dissolved in distilled water and administered duodenally using the above cannula. Mean blood pressure (mBP) until […] after the drug-administration was measured and the maximum lowering rate (%) from the value before the drug-administration (100%) was determined. No change of mBP was observed during 30 minutes in case of administrating distilled water.

[2] = molecular target: T1, PDE V (cGMP-specific PDE) (Canis lupus familiaris, UniProt O77746); experiment: Inhibitory activity on PDE V derived from canine tracheal smooth muscle; type: biochemical; conditions: Compound conc.: 1 nM; substrate 1.0 μM [3H]cGMP; read-out: PDE V inhibitory activity, Inhibition rate (%)
T1 construct: purified from canine tracheal smooth muscle; from tissue; host or cells: canine tracheal smooth muscle
Description: Hereinafter, PDE inhibitory activity and pharmacological activity of the representative Compounds (I) are described in more detail by Test Examples. Test Example 1. The inhibitory activity on PDE derived from canine tracheal smooth muscle
(1) Purification of an Enzyme
According to the method of Torphy et al. [Mol. Pharmacol., 37, 206 (1990)], PDE V (cGMP-specific PDE) was purified from canine tracheal smooth muscle.
(2) Measurement of PDE Activity
The activity was measured based on the method of Kincaid et-al. [J. D. Corbin et al., Methods Enzymol., 159, 457(1988), Academic Press, New York]. The measurement was carried out using, as a substrate, 1.0 μM [^3 H]cGMP, and the reaction was carried out in a buffer having the following composition:
50 mM N,N-bis(2-hydroxyethyl)-2-aminoethanesulfonic acid (pH 7.2), 1 mM MgCl2, 0.1 mg/ml soybean trypsin inhibitor.
The reaction was started by addition of the enzyme and stopped by addition of hydrochloric acid after reacting for 10 to 30 minutes at 30° C. Thereafter, sodium hydroxide was added for neutralization and 5'-GMP was converted into guanosine using 5'-nucleotidase. The reaction solution was subjected to DEAE-Sephadex A-25 column. [^3 H]Guano sine was eluted with distilled water and the radioactivity was measured with a liquid scintillation counter. The inhibitor was dissolved in 1.7% DMSO.

[3] = tested on: rats; experiment: Effect on developed cavernous pressure and duration of tumescence in rats; type: in vivo, male Sprague-Dawley rat; conditions: 20 μg/rat, injected into the cavernous body; for DCP (developed cavernous pressure), Pre / DT (duration of tumescence), Pre: before administration; for DCP (developed cavernous pressure), 6-min / DT (duration of tumescence), 6-min: six minutes after administration
Description: Test Example 3. Effect of Developed Cavernous Pressure and Duration of Tumescence in Rats
A male Sprague-Dawley rat was anesthetized with urethane (1.3 g/kg) subcutaneously injected into the back of the neck. The perineal incision was performed and the right crus of the penis was exposed. For measurement of cavernous pressure, a needle (25G) attached to a polyethylene tube (PE50) filled with a heparin solution was inserted into the right crus. The polyethylene tube was connected to a pressure transducer (MPC-500, Millar Instruments) and cavernous pressure was amplified with an amplifier (AP-621G, Nihon Kohden) and then recorded on a pen recorder (LR4220, Yokokawa Denki). The abdomen was incised and cavernous nerves on the prostate was exposed. The nerve was placed on a bipolar tungsten electrode and stimulated by current pulses(frequency; 20 Hz, duration; 0.2 ms, strength; 3 to 5 V) for 50 seconds with an electric stimulator (SEN-3201, Nihon Koden) to induce increases in cavernous pressure. The test compounds were dissolved in distilled water (DW) or 0.01 N hydrochloric acid at a concentration of 1 mg/ml and injected into the cavernous body(0.02 ml/rat) with a needle (27G). Before(Pre) and six minutes after administration (6-min). of distilled water (DW) or the test compounds, the nerve was stimulated, and developed cavernous pressure (DCP) and the duration of tumescence (DT) were measured. DT was defined as the time from the start of stimulation to 50% of the peak cavernous pressure after the end of stimulation.

inhibition at 0.001 µM [2]: 97%
Compound: CCn1c(=S)[nH]c2cc3c(NCc4ccccc4NCCO)ncnc3cc21 [Compound 30, 3-Ethyl-8-[2-(2-hydroxyethylamino)benzylamino]-2,3-dihydro-1H-imidazo[4,5-g]quinazoline-2-thione 2 hydrochloride]

inhibition at 0.001 µM [2]: 95%
Compound: CCn1c(=S)[nH]c2cc3c(NCc4ccccc4N4CCC(CO)CC4)ncnc3cc21 [Compound 34, 3-Ethyl-8-[2-(4-hydroxymethylpiperidino)benzylamino]-2,3-dihydro-1H-imidazo[4,5-g]quinazoline-2-thione 2 hydrochloride]
DCP (developed cavernous pressure), Pre [3]: 23.9 ± 2.0 mmHg
DT (duration of tumescence), Pre [3]: 3.3 ± 0.9 s
DCP (developed cavernous pressure), 6-min [3]: 31.1 ± 4.7 mmHg
DT (duration of tumescence), 6-min [3]: 16.9 ± 2.4 s

inhibition at 0.001 µM [2]: 62%
Compound: CCn1c(=O)[nH]c2cc3c(NCc4ccc(NCc5ccccc5)cc4)ncnc3cc21 [Compound 3, 8-(4-Benzylaminobenzylamino)-3-ethyl-2,3-dihydro-1H-imidazo[4,5-g]quinazoline-2-one 2 hydrochloride]

inhibition at 0.001 µM [2]: 98%
Compound: CCn1c(=S)[nH]c2cc3c(NCc4ccccc4N4CCOCC4)ncnc3cc21 [Compound 33, 3-Ethyl-8-(2-morpholinobenzylamino)-2,3-dihydro-1H-imidazo[4,5-g]quinazoline-2-thione 1 hydrochloride]

inhibition at 0.001 µM [2]: 37%
Compound: CCNc1ccc(CNc2ncnc3cc4c(cc23)[nH]c(=O)n4CC)cc1 [Compound 6, 3-Ethyl-8-(4-ethylaminobenzylamino)-2,3-dihydro-1H-imidazo[4,5-g]quinazoline-2-one 2 hydrochloride]

inhibition at 0.001 µM [2]: 95%
Compound: CCn1c(=S)[nH]c2cc3c(NCc4ccccc4N4CCCCC4)ncnc3cc21 [Compound 35, 3-Ethyl-8-(2-piperidinobenzylamino)-2,3-dihydro-1H-imidazo[4,5-g]quinazoline-2-thione 2 hydrochloride]
DCP (developed cavernous pressure), Pre [3]: 22.6 mmHg
DT (duration of tumescence), Pre [3]: 1.6 s
DCP (developed cavernous pressure), 6-min [3]: 21.2 mmHg
DT (duration of tumescence), 6-min [3]: 8.1 s

More lines, now with the values behind:

Compound: CCn1c(=O)[nH]c2cc3c(NCc4ccccc4N4CCSCC4)ncnc3cc21 [Compound 15, 3-Ethyl-8-(2-thiomorpholinobenzylamino)-2,3-dihydro-1H-imidazo[4,5-g]quinazoline-2-one 1 hydrochloride]
Hypotensive activity, Maximum lowering rate (%) of mean blood pressure [1]: 19.8%

Compound: CCNc1ccc(CNc2ncnc3cc4c(cc23)[nH]c(=S)n4CC)cc1 [Compound 27, 3-Ethyl-8-(4-ethylaminobenzylamino)-2,3-dihydro-1H-imidazo[4,5-g]quinazoline-2-thione 2 hydrochloride]
inhibition at 0.001 µM [2]: 97%

Compound: CCn1c(=S)[nH]c2cc3c(NCc4cccc(N5CCN(C)CC5)c4)ncnc3cc21 [Compound 40, 3-Ethyl-8-[3-(4-methyl-1-piperazinyl)benzylamino]-2,3-dihydro-1H-imidazo[4,5-g]quinazoline-2-thione 3 hydrochloride]
Hypotensive activity, Maximum lowering rate (%) of mean blood pressure [1]: 16.1%

Compound: CCn1c(=O)[nH]c2cc3c(NCc4ccc(NC)cc4)ncnc3cc21 [Compound 2, 3-Ethyl-8-(4-methylaminobenzylamino)-2,3-dihydro-1H-imidazo[4,5-g]quinazoline-2-one 2 hydrochloride]
Hypotensive activity, Maximum lowering rate (%) of mean blood pressure [1]: 19.7%

Compound: CCCNc1ccc(CNc2ncnc3cc4c(cc23)[nH]c(=S)n4CC)cc1 [Compound 26, 3-Ethyl-8-(4-propylaminobenzylamino)-2,3-dihydro-1H-imidazo[4,5-g]quinazoline-2-thione 2 hydrochloride]
DCP (developed cavernous pressure), Pre [3]: 21.5 mmHg
DT (duration of tumescence), Pre [3]: 3.8 s
DCP (developed cavernous pressure), 6-min [3]: 27.7 mmHg
DT (duration of tumescence), 6-min [3]: 22.9 s

Compound: CCn1c(=S)[nH]c2cc3c(NCc4ccc(NCc5ccccc5)cc4)ncnc3cc21 [Compound 24, 8-(4-Benzylaminobenzylamino)-3-ethyl-2,3-dihydro-1H-imidazo[4,5-g]quinazoline-2-thione 2 hydrochloride]
inhibition at 0.001 µM [2]: 88%

Compound: CCn1c(=S)[nH]c2cc3c(NCc4ccccc4NC)ncnc3cc21 [Compound 22, 3-Ethyl-8-(2-methylaminobenzylamino)-2,3-dihydro-1H-imidazo[4,5-g]quinazoline-2-thione 2 hydrochloride]
inhibition at 0.001 µM [2]: 91%

Compound: CCn1c(=S)[nH]c2cc3c(NCc4ccccc4N4CCN(C)CC4)ncnc3cc21 [Compound 36, 3-Ethyl-8-[2-(4-methyl-1-piperazinyl)benzylamino]-2,3-dihydro-1H-imidazo[4,5-g]quinazoline-2-thione 3 hydrochloride]
Hypotensive activity, Maximum lowering rate (%) of mean blood pressure [1]: 17.6%
